Measured values as given in publication PMC12040169 (PLOS Biology, 2025).

Test: in vitro
Settings: human, hela cells, % viability

| SMILES | viability at 28.5 h, 10 µM (bulk resorufin, single well) | viability at 28.5 h, 10 µM |
| --- | --- | --- |
| CN1C(=O)C(=CNCCCC(=O)O)C(=O)N(C)C1=O [CBK264420] | 90.4% | – |
| Cc1ccc(/C=C/C(=O)O)cc1S(=O)(=O)N1CCCc2ccccc21 [CBK264425] | – | 101% |
| O=C(O)CSc1nnc(-c2ccncc2)n1-c1ccccc1 [CBK264426] | – | 109% |
| Nc1nc(SCCCN2C(=O)c3cccc4cccc(c34)C2=O)nc2sc3c(c12)CCCC3 [CBK264433] | – | 99.1% |
| N#CCCN(Cc1ccccc1)C(=O)c1ccccc1[N+](=O)[O-] [CBK264434] | – | 92.6% |
| CCc1ccc(OCC(=O)c2ccc(O)c(CN(C)C)c2O)cc1 [CBK264438C] | – | 116% |
| CC(=O)Nc1ccc(S(=O)(=O)N2CCN(c3ccc([N+](=O)[O-])c(NC4CC4)c3)CC2)cc1 [CBK264439] | – | 97.3% |
| Oc1ccc(-c2n[nH]c(C(F)(F)F)c2Oc2ccc(F)cc2)c(O)c1 [CBK264440] | – | 89.5% |
| COc1cccc(/C=C2/SC(=S)NC2=O)c1OCCCOc1ccc(C)cc1C [CBK264441] | – | 94.8% |
| NC(=O)c1cc([N+](=O)[O-])ccc1NCCN1C(=O)c2ccc(C(=O)O)cc2C1=O [CBK264444] | – | 105% |
| Oc1cccc2ccc(/C=C/c3ccc(-c4ccccc4Cl)o3)nc12 [CBK264445] | – | 97.7% |
| COc1cccc(/C=C2/SC(=S)N(C)C2=O)c1OCCCOc1ccc(C)cc1C [CBK264446] | – | 102% |
| C(=C\C1Nc2ccccc2-c2nnc(SCc3ccccc3)nc2O1)/c1ccccc1 (stereo not drawn) [CBK264447] | – | 112% |
| COCC(=O)Nc1cc(OC)c(Cl)cc1OC [CBK264448] | – | 103% |
| O=C(O)/C=C\C(=O)Nc1ccc(OCC(=O)O)cc1 [CBK264449] | – | 102% |
| O=[N+]([O-])c1cccc(-c2noc(COc3ccc(Br)cc3Cl)n2)c1 [CBK264452] | – | 101% |
| N/C(=N\OC(=O)CCCc1ccccc1)c1ccc(Cl)cc1 [CBK264454] | – | 107% |
| O=C(NCc1cccnc1)c1cc(S(=O)(=O)N2CCCC2)c(Cl)cc1Cl [CBK264455] | – | 108% |
| CN(C)CCCN1C(=O)C(O)=C(C(=O)c2ccc(F)cc2)C1c1ccco1 (stereo not drawn) [CBK264456] | – | 94.6% |
| CCCc1cc(=O)oc2cc(OCC(=O)OC(C)C)c(Cl)cc12 [CBK264459] | – | 96.9% |

| SMILES | viability at 28.5 h, 10 µM (bulk resorufin, single well) | viability at 28.5 h, 10 µM |
| --- | --- | --- |
| CCOc1cc(/C=C2/C(=O)NC(=S)N(c3ccccc3CC)C2=O)ccc1OC(C)C(=O)O (stereo not drawn) [CBK264460] | 97.8% | – |
| O=S(=O)(c1ccccc1)N(CC(O)CN1CCCC1)c1cccc2ccccc12 (stereo not drawn) [CBK264464C] | – | 93.9% |
| O=C(O)CC1S/C(=N/N=C/c2cn(Cc3ccccc3)c3ccccc23)NC1=O (stereo not drawn) [CBK264466] | – | 102% |
| C(=C\c1ccccc1)/CSc1nnc(CSc2nc3ccccc3s2)n1-c1ccccc1 [CBK264467] | – | 101% |
| O=C(NCCCN1CCOCC1)c1ccc(/C=N/O)nc1 [CBK264468] | – | 107% |
| O=C(CC1S/C(=N/N=C/c2ccc(-c3ccc(Cl)c([N+](=O)[O-])c3)o2)NC1=O)Nc1ccccc1 (stereo not drawn) [CBK264473] | – | 92.9% |
| CCOC(=O)c1ccc(-c2ccc(/C=N/N=C3\NC(=O)C(CC(=O)O)S3)o2)cc1 (stereo not drawn) [CBK264474] | – | 108% |
| Cc1ccc(C(=O)C2=C(O)C(=O)N(CCCn3ccnc3)C2c2ccncc2)cc1 (stereo not drawn) [CBK264476] | – | 106% |
| Cc1[nH]nc(-c2ccc(O)c(C)c2O)c1Oc1ccc(F)cc1 [CBK264478] | – | 124% |
| N#C/C(=C/c1ccc(-c2ccc(S(N)(=O)=O)cc2)o1)c1nc2ccccc2s1 [CBK264480] | – | 83.8% |
| Cc1sc2nc(SCCCC(=O)NCCO)nc(N)c2c1C [CBK264482] | – | 96.2% |
| O=C(C1=C(O)C(=O)N(CCCn2ccnc2)C1c1ccccc1)c1cccs1 (stereo not drawn) [CBK264484] | – | 110% |
| Cc1cc(C)nc(SCCCn2c(=O)[nH]c3ccccc32)n1 [CBK264485] | – | 112% |
| CN(C)CCN1C(=O)C(O)=C(C(=O)c2ccco2)C1c1ccc([N+](=O)[O-])cc1 (stereo not drawn) [CBK264486] | – | 109% |
| O=c1c(Oc2ccc3ccccc3c2)c(C(F)(F)F)oc2c(CN3CCOCC3)c(O)ccc12 [CBK264487] | – | 103% |
| NS(=O)(=O)c1ccc(NC(=O)c2cccnc2)cc1 [CBK264488] | – | 106% |
| O=C(C1=C(O)C(=O)N(CCN2CCOCC2)C1c1cccc(Br)c1)c1ccco1 (stereo not drawn) [CBK264490] | – | 94.4% |
| COc1ccc(OC)c(C2C(C(=O)c3ccc(C)cc3)=C(O)C(=O)N2Cc2cccnc2)c1 (stereo not drawn) [CBK264492] | – | 113% |
| Cc1ccc2ccccc2c1Cn1cc(-c2ccc([N+](=O)[O-])cc2)nc1SCC(=O)NC(C)(C)C [CBK264493] | – | 115% |
| c1ccc(-c2csc3ncnc(-n4cnc5ccccc54)c23)cc1 [CBK264494] | – | 109% |

| SMILES | viability at 28.5 h, 10 µM (bulk resorufin, single well) | viability at 28.5 h, 10 µM |
| --- | --- | --- |
| CC(=O)N/C(=C/c1ccc([N+](=O)[O-])cc1)C(=O)Nc1cccc(C(=O)O)c1 [CBK264495] | – | 94.8% |
| Cc1oc2c(CN(C)C)c(O)ccc2c(=O)c1-c1cnn(-c2ccccc2)c1 [CBK264496] | – | 101% |
| Cc1cc(C(=O)O)cc(S(=O)(=O)N2CCOCC2)c1C [CBK264497] | – | 89.5% |
| O=C(O)/C=C/C(=O)Nc1ccc(S(=O)(=O)NCc2ccco2)cc1 [CBK264500] | – | 106% |
| COc1cc(/C=C2\SC(=N)NC2=O)cc(Cl)c1OS(=O)(=O)c1ccc(NC(C)=O)cc1 [CBK264502] | – | 107% |
| COc1cc(-c2nc(-c3ccc(Cl)cc3)c(-c3ccccc3)[nH]2)c([N+](=O)[O-])cc1OC [CBK264503] | – | 98.9% |
| O=C(OCc1ccccc1)Sc1nnc(-c2ccc([N+](=O)[O-])cc2)o1 [CBK264504] | – | 91.3% |
| CCN(CC)S(=O)(=O)c1csc(C(=O)Nc2cccc([N+](=O)[O-])c2)c1 [CBK264505] | – | 91.3% |
| O=C(C1=C(O)C(=O)N(CCN2CCOCC2)C1c1ccco1)c1cccs1 (stereo not drawn) [CBK264506] | – | 96% |
| O=C(O)CC1SC(N/N=C/c2ccc(-c3ccc(Cl)cc3[N+](=O)[O-])o2)=NC1=O (stereo not drawn) [CBK264507] | – | 108% |
| CCC(NS(=O)(=O)c1ccc(OC)cc1)C(=O)O (stereo not drawn) [CBK264509] | – | 100% |
| Cc1c(C)n(O)[n+]([O-])c1-c1ccccc1 [CBK264510N] | – | 103% |
| CN(C)CCCN1C(=O)C(O)=C(C(=O)c2cccs2)C1c1cccnc1 (stereo not drawn) [CBK264511] | – | 88.2% |
| Cc1nc2c(C)cccc2c(O)c1CN1CCCCCC1 [CBK264512] | – | 98.1% |
| O=C(C1=C(O)C(=O)N(Cc2cccnc2)C1c1ccncc1)c1ccc(Cl)cc1 (stereo not drawn) [CBK264513] | – | 94.8% |
| O=C(O)CC1S/C(=N/N=C/c2ccc(-c3cccc([N+](=O)[O-])c3)o2)NC1=O (stereo not drawn) [CBK264517] | – | 113% |
| Cc1n[nH]c(O)c1C(c1ccc(OC(=O)c2ccccc2Cl)cc1)c1c(C)n[nH]c1O [CBK264520] | – | 101% |
| CCOC(=O)CCc1nc2ccccc2nc1O [CBK264526] | – | 106% |
| CCc1cc2c(=O)c(-c3cnn(-c4ccccc4)c3)c(C(F)(F)F)oc2c(CN(C)C)c1O [CBK264530] | – | 90.9% |
| O=C(C1=C(O)C(=O)N(CCCN2CCOCC2)C1c1cccs1)c1cccs1 (stereo not drawn) [CBK264533] | – | 111% |
